Data: patent US20180312539A1, “METHODS FOR PREPARING HIGH THROUGHPUT PEPTIDOMIMETICS, ORALLY BIOAVAILABLE DRUGS AND COMPOSITIONS CONTAINING SAME” (University of Southern California, priority 2011, published 2018)
Blank lines part the entries; values can stand above or below the compound they belong to. *1 amine or outer side, *2 acyl side, *3 side chain or, on linkers, in order; H or OH if unused. Where a SMILES comes first, the peptide text is derived from it. Bridges are numbered along the chain shown (N, C = ends). [ ]: non-standard residue; d: D form. The star is where a group is joined. 5FAM = O=C1OC2(c3ccc(O)cc3Oc3cc(O)ccc32)c2ccc(C(=O)*)cc21; Palmitoleoyl = CCCCCC/C=C\CCCCCCCC(=O)*; Glutaryl = O=C(CCCC(=O)[*:2])[*:1]; NMeNva = CCC[C@H](NC)C(=O)O; NMeA = CN[C@@H](C)C(=O)O

Columns and labels:
[1] = mouse, in vivo, iv, 10 mg/kg
Method: (§1) 200 μL of peptide was administered by IV injection into the tail vein of C57BL6 mice at a dose of 10 mg/kg. 50 μL blood samples were taken at various time points by orbital bleeding using heparin coated capillary tubes and isoflurane for anesthesia. Samples are diluted to 600 μLin TE buffer (pH=8.0) then filtered by centrifugation through a 3000 MWCO filter. The flowthrough was analyzed on a Shimadzu RF-5301 PC fluorometer. Time points were integrated and analyzed using Prism 5.0 software.
(§2) To that end mice were administered peptide conjugated to fluorescein by IV injection into the tail vein. Blood samples were taken by orbital bleeding. Blood peptide concentration was determined by comparing fluorescence to a 15 minute time point.

blood sugar = assay: Blood glucose response to insulin; format: in vivo, C57BL6 mice; settings: oral gavage, 7 nmol/kg
Method: Experimental procedure followed previously published protocols with slight modification, see e.g., (McKern, N. M., et al. (2006) Nature 443:218; Schïffer, L., et al (2003) PNAS 100:4435). Briefly, C57BL6 mice (4 in each group) fasted overnight and were anesthetized using isoflurane prior to taking blood samples by orbital bleeding. Mice were dosed with insulin or biotinylated insulin at a concentration of 3.5 nmol/kg by IV injection into the tail vein. […] In all cases, insulin was in 150 μL of 50 mM sodium phosphate buffer (pH=8.0). Blood was analyzed on a standard Clarity Plus blood glucose meter (VWR). Readings were normalized to a T=0 blood sugar measurement, and analyzed on Graphpad 5.0.
Reacting human insulin with biotin-NHS produced three distinct products that can be separated by HPLC. […] Calceti, P. et al. (2004) European Journal of Pharmaceutical Sciences 22:315; and Tuesca, A., et al. (2009) Pharmaceutical Research 26:727.
Biotinylated insulin and insulin were fed to mice by oral gavage. […] The longer duration of response is likely due to the kinetics of absorption by the intestinal mucosa.

[2] = design: species or system C57BL6 mice; settings: mouse, in vivo, 10 mg/kg
Method: The following peptides were synthesized for oral administration: […](FAM) (SEQ ID NO: 14), […](FAM)DK(Palmitoleic acid) (SEQ ID NO: 15), and […](FAM) (SEQ ID NO: 16), wherein FAM is a lysine derivative containing fluorescein. All peptides were cyclized from the side chain to lysine to the N-terminus as previously described. Anesthetized C57BL6 mice had peptide administered at a dose of 10 mg/kg by oral gavage. After administration, mice were removed from isoflurane. At various time points, blood samples were taken by orbital bleeding as previously described. Peaks were normalized to a 15 minute time point from mice that had peptide administered by IV injection.
The following peptides were synthesized for oral administration: […](FAM) (SEQ ID NO: 14), […](FAM) (SEQ ID NO: 16), […](FAM)DK(biotin) (SEQ ID NO: 38), and […](FAM)DK(Palmitoleic acid) (SEQ ID NO: 15). All peptides were cyclized from the side chain to lysine to the N-terminus as previously described in Millward, S. W. et al. (2007) ACS Chem. Biol. 2:625. Anesthetized C57BL6 mice had peptide administered at a dose of 10 mgs/Kg by oral gavage. After administration, mice were removed from isoflurane. At various time points, blood samples were taken by orbital bleeding as previously described. Peaks were normalized to a 20 minute time point from mice that had peptide administered by IV injection. Area under the curve was analyzed by Graphpad 5.0.
In addition to accessing intracellular targets in cell culture, deriving a simple modification that would facilitate oral bioavailability of peptidic ligands would be greatly beneficial for therapeutic development. Intestinal absorption of both fatty acids and biotin is nearly 100% efficient. Zempleni, J. and Mock, D. M. (1999) The American Journal of Clinical Nutrition 69:504. […] Applicants synthesized a protease resistant peptide with the sequence […]-mod (designated SUPR peptide) (SEQ ID NO: 50), where A is N-methyl alanine, the peptide is cyclized from lysine to the N-terminus, and K(mod) is lysine with a modified sidechain including either biotin or palmitoleic acid. Palmitoleic acid is a monounsaturated fatty acid chosen for its ability to bind human serum albumin, and its low melting point allowing for more favorable solubility of conjugated peptides as compared to […] fatty acid conjugates. This peptide was administered to mice at a dose of 10 mg/kg by oral gavage. At various time points, blood was taken from the mice by orbital bleeding. After processing, fluorescence was quantified and compared to the maximum signal obtained by IV injection of peptide at the same dose.

[3] = mouse, iv
Method: as §1, §2

SKBR-3 cells = format: cell-based, human
Method: Proliferation was measured by standard BrdU cell proliferation assay (Calbiochem). Cell lines were plated in 96-well plates (20,000 cells/well) in D-10 media with indicated amount of peptide with 2% DMSO, and incubated overnight. The BrdU compound was given to the cells for 2 hrs. Following the manufacturer's protocol, samples were analyzed by UV absorbance measurements at 450 nm. Peptide signal was normalized to cells incubated with 2% DMSO but no peptide. IC50 data was generated by fitting the data to a drug response equation (Log(drug) vs. Response, GraphPad Prism 5.0).
The peptides were then screened for function using a standard in vitro assays used to test efficacy of Her-2 targeting molecules. The assay involved analyzing a molecule's ability to inhibit proliferation in cell culture. A widely used kit is the BrdU cell proliferation assay. In this assay, cells are incubated with the molecule of interest before having their media supplemented with a bromodeoxyuridine. Bromodeoxyuridine is incorporated into the DNA of proliferating cells. DNA with this modified base is recognized with an antibody, and quantitated by ELISA. Applicants tested the peptides and compared them with their parental molecules.

[4] = as known in the field; cited from earlier work
[5] = Membrane localization on PAMPA membrane; format: in vitro ADME; settings: 0.2 mM peptide, 0 and 15 min
Source text: Membrane was set up as described above. […] Care was taken not to disrupt the membrane when samples were removed.
In order to study the mechanism of this enhanced permeation in more detail, Applicants quantitated the biotin-peptide conjugate's membrane localization.

[6] = PAMPA (parallel artificial membrane permeability assay); format: in vitro ADME; settings: lauric acid in place of biotin
Method: PAMPA assays were set up following manufacturer's instructions. Briefly, 1% phosphatidyl choline (Sigma) was dissolved in dodecane (Sigma) at 65° C. for 3 min. The membrane was applied to each well as per manufacturer's instructions. […] 100 μL of sample was put into each donor well. The acceptor wells contained 300 μL of a 5% DMSO in PBS solution. Passive diffusion was allowed to occur at room temperature for 24 hrs. […] Absorbance at 215 nm was monitored. The area under the peptide peak was integrated.
The acceptor well contained 10 mM DTT as a reducing agent. Data was collected after 6, 12 and 24 hrs. Absorbance at 280 nm was analyzed. The following formula was used to calculate Log Pe: […]
Applicants employed a parallel artificial membrane permeability assay (PAMPA) that will allow for the rapid screening of peptide passive diffusion across a phospholipid bilayer. (Schmidt, et al. (2003) J. Millipore Corporation Application Note AN1729EN00.). In this assay, two chambers are separated by a phospholipid bilayer supported on an inert membrane. Applicants chose to initially focus Applicants examination on peptide ligands developed to bind with high affinity to the heterotrimeric G-proteins Gαi1*GDP and Gα12*GDP. Ja, W. W., et al. (2004) Biochemistry 43:9265; Millward, S. W., et al. (2007) ACS Chem. Biol. 2:625; Fiacco, S. et al. (2008) ChemBioChem 9:2200. These ligands included variations in sequence, size, overall charge, and polarity as well as comparing linear and cyclic peptides, end and biotinylation. […] According to classical methods of increasing permeability. Pinski, C. A., et al. (2001) Advanced Drug Delivery Reviews 46:3. Applicants postulated that the removal of hydrogen bond donors by N-methylation should further increase the permeability of this peptide.

b = assay: b
Source text: Table printed on a drawing sheet, FIGURES 5A and 5B
FIG. 5A is Vmax for chymotrypsin digestion of cycGIBP(•), linSUPR(♦), and cycSUPR(▪). A close up of linSUPR and cycSUPR is embedded in the Figure to show the data in more detail. FIG. 5B is a Table showing values for Km and Vmax as derived by processing the data through Graphpad Prism 5.0. Both Km and Vmax are highly optimized for protease resistance in cycSUPR peptide when compared to cycGIBP.
First reader's note: Km and Vmax are kinetic parameters of chymotrypsin digestion of the peptides (protease stability); the sheet prints no unit for Km.

Compound: CC[C@H](C)[C@@H]1NC(=O)[C@H](CCSC)NC(=O)CCCC(=O)NCCCC[C@@H](C(N)=O)NC(=O)[C@H]([C@@H](C)O)NC(=O)CNC(=O)[C@H](C)NC(=O)[C@H](C(C)C)NC(=O)[C@H](Cc2ccccc2)NC(=O)[C@H](CCC(=O)O)NC(=O)[C@H](Cc2ccc(O)cc2)NC(=O)[C@H](Cc2c[nH]c3ccccc23)NC(=O)[C@H]([C@@H](C)O)NC1=O [cycGIBP, reference compound] (MITWYEFVAGTK-NH2; linker N-12 via Glutaryl)
half-life [1]: 0.0517 h

Compound: insulin: unmodified human insulin [reference compound]
effect on blood sugar (blood sugar): no effect on blood sugar

half-life [1]: 18.3 h | bioavailability [2]: 9.8% | oral uptake efficiency ([2]; po): 9.4% | fold increase in in vivo half-life over cycGIBP [3]: 354 fold
Compound: CCCCCC/C=C\CCCCCCCC(=O)NCCCC[C@@H](NC(=O)[C@H](CCCCNC(=O)c1ccc2c(c1)C(=O)OC21c2ccc(O)cc2Oc2cc(O)ccc21)NC(=O)[C@@H]1CCCCNC(=O)CCCC(=O)N[C@@H](CCSC)C(=O)N[C@@H](Cc2ccccc2)C(=O)N[C@@H](Cc2ccc(O)cc2)C(=O)N(C)[C@@H](C)C(=O)N[C@@H](Cc2ccc(O)cc2)C(=O)N[C@@H](CCC(=O)O)C(=O)N[C@@H](Cc2ccc(O)cc2)C(=O)N(C)[C@@H](C)C(=O)N[C@@H](CCC(N)=O)C(=O)N[C@@H](Cc2c[nH]c3ccccc23)C(=O)N[C@@H](CO)C(=O)N1)C(=O)O [FA-cycSUPR] (MFY[NMeA]YEY[NMeA]QWSKK(5FAM)[dK](Palmitoleoyl)-OH; linker N-12 via Glutaryl)

Compound: CCC[C@H]1C(=O)N(C)[C@@H](CCC)C(=O)N[C@@H](CC(C)C)C(=O)N[C@@H](Cc2ccc(O)cc2)C(=O)N[C@@H](CC(=O)O)C(=O)N[C@@H](CC(=O)O)C(=O)N[C@H](C(N)=O)CCCCNC(=O)CCCC(=O)N[C@@H](CCSC)C(=O)N[C@@H](C(C)C)C(=O)N[C@@H](CS)C(=O)N1C [Peptide D] (MVC[NMeNva][NMeNva]LYDDK-NH2; linker N-10 via Glutaryl (inferred); C-terminus assumed)
fold improvement with respect to parental molecule (SKBR-3 cells; EC50/IC50 ratio, peptide 1 vs HRAP, peptide D vs ANHP): ~110 fold | proliferation relative to untreated cells (maximal effect) (SKBR-3 cells; concentrations significantly above the EC50): 56%

Compound: biotinylated insulin: human insulin singly biotinylated on the N-terminus of the B-chain
effect on blood sugar (blood sugar): produced a typical insulin response

Compound: CCCCCC/C=C\CCCCCCCC(=O)O [palmitoleic acid]
oral bioavailability [4]: ~100%

Compound: CCCCCCCCCCCC(=O)O [Lauric acid]
membrane localization [5]: 27% | Log Pe [6]: −6.8

Compound: CC[C@H](C)[C@@H]1NC(=O)[C@H](CCSC)NC(=O)CCCC(=O)NCCCC[C@@H](C(N)=O)NC(=O)[C@H]([C@@H](C)O)NC(=O)CNC(=O)[C@H](C)NC(=O)[C@H](C(C)C)NC(=O)[C@H](Cc2ccccc2)NC(=O)[C@H](CCC(=O)O)NC(=O)[C@H](Cc2ccc(O)cc2)NC(=O)[C@H](Cc2c[nH]c3ccccc23)NC(=O)[C@H]([C@@H](C)O)NC1=O [cycGIBP] (MITWYEFVAGTK-NH2; linker N-12 via Glutaryl)
Vmax (b): 37 nmol/s
